From US12336981B2, “Compounds and compositions for the inhibition of NAMPT” (Valo Health, Inc., priority 2010, dated 2025)
pIC50: −log10 of the molar value. Read-outs that look alike come from different tables or passages of the source.

Assays:
[1] = biological target: T1, NAMPT (Homo sapiens, UniProt P43490); experiment: Biochemical inhibition assay: NAMPT enzymatic reaction, NMN quantified by mass spectrometry; details: read-out: Biochem IC50
T1 construct: His tag; host or cells: E. coli
Summary of the method: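 Inhibition of E. coli-expressed His-tagged human NAMPT, measured as NMN formation by mass spectrometry after a 30 min room-temperature reaction containing 1 μM NAM, 100 μM PRPP and 2.5 mM ATP.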

[2] = system: A2780 cells; experiment: In-vitro cell proliferation assay (SRB), A2780 cells; assay type: cell-based; details: Homo sapiens, A2780, 72 h, A2780 cells, 72 hours, read-out: A2780 IC50
Summary of the method: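 SRB read-out: 6% TCA fix 1 h at 4° C., stain, Tris solubilize, A570. Media-only background subtracted; % inhibition from two compound concentrations.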

T1 sequence (P43490 whole entry): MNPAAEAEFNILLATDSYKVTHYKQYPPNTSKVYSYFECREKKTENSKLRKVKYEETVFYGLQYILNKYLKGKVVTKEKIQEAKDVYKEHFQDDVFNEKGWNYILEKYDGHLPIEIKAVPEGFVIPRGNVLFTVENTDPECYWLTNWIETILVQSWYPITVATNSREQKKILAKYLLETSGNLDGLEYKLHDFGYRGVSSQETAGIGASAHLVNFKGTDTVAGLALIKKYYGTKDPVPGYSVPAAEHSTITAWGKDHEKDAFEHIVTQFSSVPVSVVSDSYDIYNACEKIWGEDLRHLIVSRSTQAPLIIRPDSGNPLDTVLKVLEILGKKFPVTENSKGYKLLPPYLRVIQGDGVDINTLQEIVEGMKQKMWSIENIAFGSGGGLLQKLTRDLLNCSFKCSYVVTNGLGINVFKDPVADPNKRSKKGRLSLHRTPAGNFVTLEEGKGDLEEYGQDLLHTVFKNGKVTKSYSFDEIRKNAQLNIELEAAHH

O=C(NCc1ccc(S(=O)(=O)c2ccc(F)cc2)cc1)c1cc2ccncc2s1 [N-({4-[(4-fluorobenzene)sulfonyl]phenyl}methyl)thieno[2,3-c]pyridine-2-carboxamide]
pIC50 ([1]; NAMPT enzymatic reaction): 8.52
pIC50 ([2]; SRB assay): 8.00

Cc1ccc(Cl)c(S(=O)(=O)c2ccc(CNC(=O)c3cc4cnccc4[nH]3)cc2)c1F
pIC50 ([1]; NAMPT enzymatic assay): 8.19
pIC50 ([2]; SRB): 8.15

COc1cc(Cl)cc(S(=O)(=O)c2ccc(CNC(=O)c3cnc4nccn4c3)cc2)c1
pIC50 ([1]; NAMPT enzymatic reaction): 8.89
pIC50 ([2]; SRB): 9.10

COc1ccc(S(=O)(=O)c2ccc(CNC(=O)c3cc4ccncc4o3)cc2)c(C)c1 [N-({4-[(4-methoxy-2-methylbenzene)sulfonyl]phenyl}methyl)furo[2,3-c]pyridine-2-carboxamide]
pIC50 ([1]; NAMPT enzymatic reaction): 7.67
pIC50 ([2]; SRB): 7.45

O=C(NCc1ccc(S(=O)(=O)c2ccnc(N3CCOCC3)c2Cl)cc1)c1cc2ccncc2s1 [N-({4-[3-chloro-2-(morpholin-4-yl)pyridine-4-sulfonyl]phenyl}methyl)thieno[2,3-c]pyridine-2-carboxamide]
pIC50 ([1]; NAMPT enzymatic assay): 8.07
pIC50 ([2]; SRB): 8.74

O=C(Nc1ccc(S(=O)(=O)N2CCCCC2)cc1)c1cc2cnccc2[nH]1 [N-[4-(piperidine-1-sulfonyl)phenyl]-1H-pyrrolo[3,2-c]pyridine-2-carboxamide]
pIC50 ([1]; NAMPT enzymatic reaction): 8.10
pIC50 ([2]; SRB assay): 8.22

O=C(NCc1ccc(S(=O)(=O)c2cnn(-c3ccc(F)cc3)c2)cc1)c1cc2cnccc2[nH]1 [N-({4-[1-(4-fluorophenyl)-1H-pyrazole-4-sulfonyl]phenyl}methyl)-1H-pyrrolo[3,2-c]pyridine-2-carboxamide]
pIC50 ([1]; NAMPT enzymatic assay): 7.74
pIC50 ([2]; SRB): 8.18

COc1cc(F)ccc1S(=O)(=O)c1ccc(CNC(=O)c2cc3cnccc3[nH]2)cc1 [N-({4-[(4-fluoro-2-methoxybenzene)sulfonyl]phenyl}methyl)-1H-pyrrolo[3,2-c]pyridine-2-carboxamide]
pIC50 ([1]; NAMPT enzymatic reaction): 7.51
pIC50 ([2]; SRB assay): 8.15

O=C(NCc1ccc(S(=O)(=O)c2cc(Cl)cc(Cl)c2)cc1)c1cc2cnccc2[nH]1
pIC50 ([1]; NAMPT enzymatic reaction): 9.00
pIC50 ([2]; SRB): 9.40

CCOCc1ccccc1S(=O)(=O)c1ccc(CNC(=O)c2cnc3[nH]ncc3c2)cc1
pIC50 ([1]; NAMPT enzymatic assay): 7.28
pIC50 ([2]; SRB): 7.21

O=C(NCc1ccc(S(=O)(=O)c2c(Cl)cccc2Cl)cc1)c1cnc2nccn2c1
pIC50 ([1]; NAMPT enzymatic reaction): 7.87
pIC50 ([2]; SRB): 6.00 to 7.00

O=C(NCc1ccc(S(=O)(=O)N2CC3CCC(C2)O3)cc1)c1cc2ccncc2s1 [N-[(4-{8-oxa-3-azabicyclo[3.2.1]octane-3-sulfonyl}phenyl)methyl]thieno[2,3-c]pyridine-2-carboxamide]
pIC50 ([1]; NAMPT enzymatic reaction): 7.82
pIC50 ([2]; SRB assay): 8.52

O=C(NCc1ccc(S(=O)(=O)c2cccc3ccsc23)cc1)c1cc2ccncc2o1 [N-{[4-(1-benzothiophene-7-sulfonyl)phenyl]methyl}furo[2,3-c]pyridine-2-carboxamide]
pIC50 ([1]; NAMPT enzymatic assay): 8.31
pIC50 ([2]; SRB): 7.86

Cn1ncc2c(S(=O)(=O)c3ccc(CNC(=O)c4cc5ccncc5o4)cc3)cccc21 [N-{[4-(1-methyl-1H-indazole-4-sulfonyl)phenyl]methyl}furo[2,3-c]pyridine-2-carboxamide]
pIC50 ([1]; NAMPT enzymatic assay): 8.04
pIC50 ([2]; SRB): 8.44

Cc1cc(S(=O)(=O)c2ccc(CNC(=O)c3cnc4[nH]ncc4c3)cc2)c(C)cc1F [N-({4-[(4-fluoro-2,5-dimethylbenzene)sulfonyl]phenyl}methyl)-1H-pyrazolo[3,4-b]pyridine-5-carboxamide]
pIC50 ([1]; NAMPT enzymatic reaction): 7.43
pIC50 ([2]; SRB): 7.34

COc1ccc(C(C)(C)C)cc1S(=O)(=O)c1ccc(CNC(=O)c2cc3cnccc3[nH]2)cc1 [N-({4-[(5-tert-butyl-2-methoxybenzene)sulfonyl]phenyl}methyl)-1H-pyrrolo[3,2-c]pyridine-2-carboxamide]
pIC50 ([1]; NAMPT enzymatic reaction): 6.19
pIC50 ([2]; SRB assay): 8.22

O=C(NCc1ccc(S(=O)(=O)c2nccs2)cc1)c1cc2ccncc2s1 [N-{[4-(1,3-thiazole-2-sulfonyl)phenyl]methyl}thieno[2,3-c]pyridine-2-carboxamide]
pIC50 ([1]; NAMPT enzymatic assay): 7.84
pIC50 ([2]; SRB): 7.12

Cc1ccc(F)c(S(=O)(=O)c2ccc(CNC(=O)c3cc4cnccc4[nH]3)cc2)c1 [N-({4-[(2-fluoro-5-methylbenzene)sulfonyl]phenyl}methyl)-1H-pyrrolo[3,2-c]pyridine-2-carboxamide]
pIC50 ([1]; NAMPT enzymatic reaction): 7.60
pIC50 ([2]; SRB assay): 7.62

O=C(NCc1ccc(S(=O)(=O)c2ccc(C(F)(F)F)nc2)cc1)c1cc2ccncc2s1 [N-({4-[6-(trifluoromethyl)pyridine-3-sulfonyl]phenyl}methyl)thieno[2,3-c]pyridine-2-carboxamide]
pIC50 ([1]; NAMPT enzymatic assay): 8.12
pIC50 ([2]; SRB): 8.17

O=C(NCc1ccc(S(=O)(=O)c2cccc(N3CCCCC3)c2)cc1)c1cc2ccncc2o1 [N-[(4-{[3-(piperidin-1-yl)benzene]sulfonyl}phenyl)methyl]furo[2,3-c]pyridine-2-carboxamide]
pIC50 ([1]; NAMPT enzymatic assay): 7.95
pIC50 ([2]; SRB): 7.90

CCN(CC)C(=O)c1cc(F)cc(S(=O)(=O)c2ccc(CNC(=O)c3cnc4nccn4c3)cc2)c1 [N-[(4-{[3-(diethylcarbamoyl)-5-fluorobenzene]sulfonyl}phenyl)methyl]imidazo[1,2-a]pyrimidine-6-carboxamide]
pIC50 ([1]; NAMPT enzymatic assay): 8.33
pIC50 ([2]; SRB): 7.77

O=C(NCc1ccc(S(=O)(=O)c2cnc3ccccc3c2)cc1)c1cc2ccncc2s1 [N-{[4-(quinoline-3-sulfonyl)phenyl]methyl}thieno[2,3-c]pyridine-2-carboxamide]
pIC50 ([1]; NAMPT enzymatic assay): 8.36
pIC50 ([1]; NAMPT enzymatic reaction): 8.52
pIC50 ([2]; SRB assay): 9.10
pIC50 ([2]; SRB): 9.05

O=C(NCc1ccc(S(=O)(=O)c2cccc(-c3ccc(F)c(F)c3)n2)cc1)c1cc2ccncc2s1 [N-({4-[6-(3,4-difluorophenyl)pyridine-2-sulfonyl]phenyl}methyl)thieno[2,3-c]pyridine-2-carboxamide]
pIC50 ([1]; NAMPT enzymatic assay): 8.66
pIC50 ([2]; SRB): 7.88

COc1cc(F)cc(S(=O)(=O)c2ccc(CNC(=O)c3cnc4nccn4c3)cc2)c1
pIC50 ([1]; NAMPT enzymatic reaction): 8.80
pIC50 ([2]; SRB): 8.48

Cn1ncc2ccc(S(=O)(=O)c3ccc(CNC(=O)c4cc5cnccc5[nH]4)cc3)cc21 [N-{[4-(1-methyl-1H-indazole-6-sulfonyl)phenyl]methyl}-1H-pyrrolo[3,2-c]pyridine-2-carboxamide]
pIC50 ([1]; NAMPT enzymatic assay): 8.29
pIC50 ([2]; SRB): 8.48

CCNC(=O)c1ccc(S(=O)(=O)c2ccc(CNC(=O)c3cc4ccncc4s3)cc2)cc1
pIC50 ([1]; NAMPT enzymatic assay): 8.82
pIC50 ([2]; SRB): 8.48

Cc1ccncc1S(=O)(=O)c1ccc(CNC(=O)c2cnc3[nH]ncc3c2)cc1 [N-{[4-(4-methylpyridine-3-sulfonyl)phenyl]methyl}-1H-pyrazolo[3,4-b]pyridine-5-carboxamide]
pIC50 ([1]; NAMPT enzymatic assay): 6.00 to 7.00
pIC50 ([2]; SRB): 6.57

Cc1cc(C(F)(F)F)ccc1S(=O)(=O)c1ccc(CNC(=O)c2ccc3nccn3c2)cc1
pIC50 ([1]; NAMPT enzymatic assay): 7.61
pIC50 ([2]; SRB): 7.78

O=C(NCc1ccc(S(=O)(=O)c2ccc(C(F)(F)F)c(F)c2)cc1)c1ccc2nccn2c1
pIC50 ([1]; NAMPT enzymatic assay): 7.40
pIC50 ([2]; SRB): 8.36

CC(=O)c1ccc(S(=O)(=O)c2ccc(CNC(=O)c3cnc4nccn4c3)cc2)cc1
pIC50 ([1]; NAMPT enzymatic reaction): 8.28
pIC50 ([2]; SRB): 8.19

COc1ccc(C(C)=O)cc1S(=O)(=O)c1ccc(CNC(=O)c2cc3cnccc3[nH]2)cc1 [N-({4-[(5-acetyl-2-methoxybenzene)sulfonyl]phenyl}methyl)-1H-pyrrolo[3,2-c]pyridine-2-carboxamide]
pIC50 ([1]; NAMPT enzymatic reaction): 7.70
pIC50 ([2]; SRB assay): 8.22

O=C(NCc1ccc(S(=O)(=O)c2ccc(Cl)c(F)c2)cc1)c1cc2ccncc2s1 [N-({4-[(4-chloro-3-fluorobenzene)sulfonyl]phenyl}methyl)thieno[2,3-c]pyridine-2-carboxamide]
pIC50 ([1]; NAMPT enzymatic reaction): 8.52
pIC50 ([2]; SRB assay): 8.15

O=C(NCc1ccc(S(=O)(=O)c2ccc(N3CCOCC3)cc2)cc1)c1cc2ccncc2o1
pIC50 ([1]; NAMPT enzymatic assay): 8.34
pIC50 ([2]; SRB): 8.60

CCOc1cccc(S(=O)(=O)c2ccc(CNC(=O)c3cc4cnccc4[nH]3)cc2)c1 [N-({4-[(3-ethoxybenzene)sulfonyl]phenyl}methyl)-1H-pyrrolo[3,2-c]pyridine-2-carboxamide]
pIC50 ([1]; NAMPT enzymatic reaction): 8.11
pIC50 ([2]; SRB): 8.46

Cc1ccc(F)c(S(=O)(=O)c2ccc(CNC(=O)c3cc4ccncc4o3)cc2)c1
pIC50 ([1]; NAMPT enzymatic reaction): 8.23
pIC50 ([2]; SRB): 7.87

O=C(NCc1ccc(S(=O)(=O)c2ccc(Cl)cc2)cc1)c1cnc2nccn2c1
pIC50 ([1]; NAMPT enzymatic reaction): 8.60
pIC50 ([2]; SRB): 7.63

COc1ccc(S(=O)(=O)c2ccc(CNC(=O)c3ccc4nccn4c3)cc2)c(F)c1 [N-({4-[(2-fluoro-4-methoxybenzene)sulfonyl]phenyl}methyl)imidazo[1,2-a]pyridine-6-carboxamide]
pIC50 ([1]; NAMPT enzymatic reaction): 7.38
pIC50 ([2]; SRB): 7.64

COc1ccc(S(=O)(=O)c2ccc(CNC(=O)c3cc4ccncc4o3)cc2)nc1 [N-{[4-(5-methoxypyridine-2-sulfonyl)phenyl]methyl}furo[2,3-c]pyridine-2-carboxamide]
pIC50 ([1]; NAMPT enzymatic assay): 8.10
pIC50 ([2]; SRB): 7.50

Cn1cc2cc(S(=O)(=O)c3ccc(CNC(=O)c4cnc5nccn5c4)cc3)ccc2n1 [N-{[4-(2-methyl-2H-indazole-5-sulfonyl)phenyl]methyl}imidazo[1,2-a]pyrimidine-6-carboxamide]
pIC50 ([1]; NAMPT enzymatic assay): 8.92
pIC50 ([2]; SRB): 8.09

Cc1cc(Cl)cc(S(=O)(=O)c2ccc(CNC(=O)c3ccc4nccn4c3)cc2)c1
pIC50 ([1]; NAMPT enzymatic reaction): 8.19
pIC50 ([2]; SRB): 8.70

Cn1c(S(=O)(=O)c2ccc(CNC(=O)c3cnc4[nH]ncc4c3)cc2)cc2ccccc21 [N-{[4-(1-methyl-1H-indole-2-sulfonyl)phenyl]methyl}-1H-pyrazolo[3,4-b]pyridine-5-carboxamide]
pIC50 ([1]; NAMPT enzymatic assay): 7.85
pIC50 ([2]; SRB): 7.88

COc1ccc(S(=O)(=O)c2ccc(CNC(=O)c3cnc4nccn4c3)cc2)cc1OC
pIC50 ([1]; NAMPT enzymatic reaction): 8.54
pIC50 ([2]; SRB): 8.14

Cn1cc2ccc(S(=O)(=O)c3ccc(CNC(=O)c4cnc5nccn5c4)cc3)cc2n1 [N-{[4-(2-methyl-2H-indazole-6-sulfonyl)phenyl]methyl}imidazo[1,2-a]pyrimidine-6-carboxamide]
pIC50 ([1]; NAMPT enzymatic assay): 8.92
pIC50 ([2]; SRB): 8.21
